Experimental data: patent publication US5703236A, “Tetrahydrofuran antifungals” (Schering Corporation, priority 1995, dated 1997)

Legend:
[1] = serum levels, half lives and tissue distribution following oral dosing; format: in vivo; conditions: mice, rats, dogs and monkeys, methyl cellulose formulation
[2] = system: cytochrome P-450 liver drug metabolizing enzymes; assay: induction of cytochrome P-450 liver drug metabolizing enzymes, in vivo rat model; conditions: oral administration
[3] = system: Candida tropicalis & stellatoidea; assay: conventional broth dilution in vitro antifungal test, Candida tropicalis & stellatoidea; format: cell-based; conditions: 5 strains
Experimental: (§1) The in vitro antifungal activity tests were performed via conventional broth dilution methods in Sabouraud dextrose broth ("SDB") medium and Eagles Minimum Essential Medium ("EMEM") against a large number of fungi. Minimum Inhibitory Concentrations ("MICs") were measured after 24, 48 and 72 hour tests. In many cases, Minimum Fungicidial Concentrations ("MFCS") were measured after 48 and 72 hours.

Candida krusei = assay: conventional broth dilution in vitro antifungal test, Candida krusei; format: cell-based; conditions: 16 strains
Experimental: as §1

Aspergillus = assay: conventional broth dilution in vitro antifungal test, Aspergillus; format: cell-based, Aspergillus flavus, fumigatus and other species; conditions: 37 strains
Experimental: as §1

Candida albicans = assay: conventional broth dilution in vitro antifungal test, Candida albicans; format: cell-based; conditions: 26 strains; for PERCENTAGE OF STRAINS WITH MICs ≤ 1 MCG/ML: Table Q; for percentage of strains with MFCs ≤ 1 mcg/mL: Table R (MFCs)
Experimental: as §1

Cryptococcus neoformans = assay: conventional broth dilution in vitro antifungal test, Cryptococcus neoformans; format: cell-based; conditions: 3 strains; for MIC 90: Table S
Experimental: as §1

Dermatophytes = assay: conventional broth dilution in vitro antifungal test, dermatophytes; format: cell-based, T. rubrum, T. mentagrophytes, and T. tonsurans; conditions: 6 strains
Candida glabrata = assay: conventional broth dilution in vitro antifungal test, Candida glabrata; format: cell-based; conditions: 9 strains; for PERCENTAGE OF STRAINS WITH MICs ≤ 1 MCG/ML: Table Q; for percentage of strains with MFCs ≤ 1 mcg/mL: Table R (MFCs)
Experimental: as §1

Compound	serum levels compared to azoles of similar structure [1]	induction of cytochrome P-450 liver drug metabolizing enzymes [2]	PERCENTAGE OF STRAINS WITH MICs ≤ 1 MCG/ML ([3]; Table Q) [%]	PERCENTAGE OF STRAINS WITH MICs ≤ 1 MCG/ML ([3]; Table R (MFCs)) [%]	PERCENTAGE OF STRAINS WITH MICs ≤ 1 MCG/ML (Candida krusei; Table Q) [%]	PERCENTAGE OF STRAINS WITH MICs ≤ 1 MCG/ML (Candida krusei; Table R (MFCs)) [%]	PERCENTAGE OF STRAINS WITH MICs ≤ 1 MCG/ML (Aspergillus; Table Q) [%]	PERCENTAGE OF STRAINS WITH MICs ≤ 1 MCG/ML (Aspergillus; Table R (MFCs)) [%]	PERCENTAGE OF STRAINS WITH MICs ≤ 1 MCG/ML (Candida albicans) [%]	percentage of strains with MFCs ≤ 1 mcg/mL (Candida albicans) [%]	PERCENTAGE OF STRAINS WITH MICs ≤ 1 MCG/ML (Cryptococcus neoformans; Table Q) [%]	PERCENTAGE OF STRAINS WITH MICs ≤ 1 MCG/ML (Cryptococcus neoformans; Table R (MFCs)) [%]	MIC 90 (Cryptococcus neoformans)	PERCENTAGE OF STRAINS WITH MICs ≤ 1 MCG/ML (Dermatophytes; Table Q) [%]	PERCENTAGE OF STRAINS WITH MICs ≤ 1 MCG/ML (Dermatophytes; Table R (MFCs)) [%]	PERCENTAGE OF STRAINS WITH MICs ≤ 1 MCG/ML (Candida glabrata) [%]	percentage of strains with MFCs ≤ 1 mcg/mL (Candida glabrata) [%]
CCC(C(C)O)n1ncn(-c2ccc(N3CCN(c4ccc(OCC5COC(Cn6cncn6)(c6ccc(F)cc6F)C5)cc4)CC3)cc2)c1=O (centres unmarked) [drawing 28]	consistently higher serum levels	not inducers of various cytochrome P-450 liver drug metabolizing enzymes															
CCC(C(C)O)n1ncn(-c2ccc(N3CCN(c4ccc(OCC5COC(Cn6cncn6)(c6ccc(F)cc6F)C5)cc4)CC3)cc2)c1=O (centres unmarked) [drawing 29]			100	100	100	88	100	50	100	100	100	100	.05 MCG/ML	100	67	22	22
CCC(C(C)O)n1ncn(-c2ccc(N3CCN(c4ccc(OCC5COC(Cn6cncn6)(c6ccc(F)cc6F)C5)cc4)CC3)cc2)c1=O (centres unmarked) [drawing 30]			100	100	100	94	100	62	100	100	100	100	.007 MCG/ML	100	83	22	22
OC(Cn1cncn1)(Cn1cncn1)c1ccc(F)cc1F [FLZ, fluconazole, reference compound]				100		0		0		100		0			0		0
CCC(C(C)O)n1ncn(-c2ccc(N3CCN(c4ccc(OCC5COC(Cn6cncn6)(c6ccc(F)cc6F)C5)cc4)CC3)cc2)c1=O (centres unmarked) [drawing 31]			100	100	100	100	100	89	100	100	100	100		100	100	33	22
